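Briefly, cells in 96-well plates were exposed to five compound concentrations for 48 h, and endpoints were estimated by linear interpolation. GI50: concentration for 50% inhibition of growth. TGI denotes the concentration required for complete inhibition of growth.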
Experiments:
Assay in all cases: NCI tumour cell line growth inhibition, 48 h
[1] = test system: IGROV1 ovarian
[2] = test system: TK-10 renal
[3] = test system: NCI-H226 lung
[4] = test system: SNB-19 CNS
[5] = test system: RXF 393 renal
[6] = test system: HCT-15 colon
[7] = test system: 786-0 renal
[8] = test system: OVCAR-8 ovarian
[9] = test system: NCI-H460 lung
[10] = test system: MALME-3M melanoma
[11] = test system: OVCAR-5 ovarian
[12] = test system: SN12C renal
[13] = test system: MDA-MB-231 breast
[14] = test system: SF-539 CNS
[15] = test system: SK-OV-3 ovarian
[16] = test system: MCF7 breast
[17] = test system: HCC-2998 colon
[18] = test system: BT-549 breast
[19] = test system: EKVX NSCLC
[20] = test system: PC-3 prostate
[21] = test system: COLO 205 colon
[22] = test system: SF-295 CNS
[23] = test system: NCI-H522 lung
[24] = test system: T-47D breast
[25] = test system: HL-60(TB) leukemia
[26] = test system: OVCAR-3 ovarian
[27] = test system: UACC-257 melanoma
[28] = test system: NCI-H23 lung
[29] = test system: A498 renal
[30] = test system: RPMI-8226 leukemia
[31] = test system: LOX IMVI melanoma
[32] = test system: SK-MEL-5 melanoma
[33] = test system: CAKI-1 renal
[34] = test system: HOP-92 NSCLC
[35] = test system: KM12 colon
[36] = test system: A549 NSCLC
[37] = test system: MOLT-4 leukemia
[38] = test system: SK-MEL-28 melanoma
[39] = test system: MDA-MB-435
[40] = test system: SNB-75 CNS
[41] = test system: SF-268 CNS
[42] = test system: HT29 colon
[43] = test system: ACHN renal
[44] = test system: DU-145 prostate
[45] = test system: U251 CNS
[46] = test system: HCT-116 colon
[47] = test system: K-562 leukemia
[48] = test system: M14 melanoma
[49] = test system: SW-620 colon
[50] = test system: HOP-62 NSCLC
[51] = test system: UACC-62 melanoma
[52] = test system: NCI/ADR-RES ovarian
[53] = test system: UO-31 renal
[54] = test system: SK-MEL-2 melanoma
[55] = test system: MDA-N

## CC1OC(OC2C(O)CC(OC3C(O)CC(OC4CCC5(C)C(CCC6C5CCC5(C)C(C7=CC(=O)OC7)CCC65O)C4)OC3C)OC2C)CC(O)C1O (stereo unspecified)
[1]
  TGI: 542 nM
[2]
  TGI: 87.6 nM
[3]
  TGI: 174 nM
[4]
  TGI: 304 nM
[5]
  TGI: 78.5 nM
[6]
  TGI: 86.7 nM
[7]
  GI50: < 12.4 nM
  TGI: 21.9 nM
[8]
  GI50: < 18.7 nM
  TGI: 70.8 nM
[9]
  GI50: < 11.6 nM
  TGI: < 18.7 nM
[10]
  TGI: 75.6 nM
[11]
  TGI: 148 nM
[12]
  TGI: 130 nM
[13]
  TGI: 786 nM
[14]
  TGI: 21.9 nM
[15]
  TGI: 143 nM
[16]
  TGI: > 100 µM
[17]
  TGI: 584 nM
[18]
  TGI: 61.8 nM
[19]
  TGI: 80.9 nM
[20]
  TGI: 170 nM
[21]
  TGI: 142 nM
[22]
  TGI: 99.8 nM
[23]
  TGI: 22.4 nM
[24]
  GI50: 56 nM
  TGI: 1730 nM
[25]
  GI50: 45.1 nM
  TGI: 415 nM
[26]
  TGI: 48.5 nM
[27]
  TGI: 219 nM
[28]
  TGI: 51.7 nM
[29]
  GI50: < 10 nM
  TGI: 30.1 nM
[30]
  TGI: 1470 nM
[31]
  GI50: < 12.1 nM
  TGI: 58.7 nM
[32]
  TGI: 62.4 nM
[33]
  TGI: 52.7 nM
[34]
  TGI: 190 nM
[35]
  TGI: 209 nM
[36]
  TGI: 29.5 nM
[37]
  GI50: 165 nM
[38]
  TGI: 423 nM
[39]
  TGI: 147 nM
[40]
  TGI: 653 nM
[41]
  TGI: 61.4 nM
[42]
  TGI: 123 nM
[43]
  TGI: 106 nM
[44]
  GI50: < 12 nM
  TGI: < 20.4 nM
[45]
  GI50: < 17.7 nM
  TGI: 46.7 nM
[46]
  GI50: 11 nM
  TGI: 100 nM
[47]
  TGI: 204 nM
[48]
  GI50: 95.6 nM
  TGI: 268 nM
[49]
  TGI: 282 nM
[50]
  TGI: 41.7 nM
[51]
  TGI: 152 nM
[52]
  TGI: 293 nM
[53]
  TGI: 151 nM
[54]
  TGI: 447 nM
[55]
  TGI: 138 nM

From PubChem BioAssay (NCI)
